Results published in US7655629B2, “Peptides and their use for the treatment of HIV infections” (priority 2002, dated 2010).
Read-outs that look alike come from different tables or passages of the source. Positions of bridges follow the written chain, without caps; N, C: chain ends. Non-standard residues stand in square brackets, D forms with d. Residues, ends and D or L forms follow the SMILES beside them. Chains are numbered I, II in the order given. Bta = N[C@@H](Cc1csc2ccccc12)C(=O)O; dTic = O=C(O)[C@H]1Cc2ccccc2CN1; NMeL = CN[C@@H](CC(C)C)C(=O)O

Columns and labels:
[1] = dog, plasma
Method: Plasma was spiked resulting in concentrations of 40 μg/ml and stored at 37° C. At time points 0, 15, 30, 45, 60, 120, 180, 240 and 300 min samples of 20 μl were taken. The plasma was immediately mixed for precipitation with the two-fold volume of acetonitrile containing 0.15% (w/v) n-nonyl-β-D-glucopyranoside. Following centrifugation the supernatants were mixed with the two-fold volume of 0.1% (v/v) trifluroacetic acid. Twenty μl of these solutions were analyzed by LC-MS. Chromatography was performed using a gradient with the following eluents: eluent A: water containing 0.06% trifluroacetic acid (v/v), eluent B: acetonitrile/water 80:20 (v/v; with 0.05% trifluoroacetic acid; v/v). A C18 precolumn was used in combination with a C18 separation column (300 Å, 5 μm, 150×1 mm inner diameter) at a flow rate of 30 μl/min. HPLC eluates were ionized by the electrospray technique of a LCQ classic mass spectrometer. Areas of the detected peaks of the peptides of the present invention were measured and used for quantification by external calibration. The calibration curve was linear over a range from 0.5 μg/ml to 250 μg/ml plasma. Half life—defined as the period for a concentration decrease to 50% of the initial concentration—was calculated from the slope of an extrapolated curve plotting the relative peptide concentration at a given time point (logarithm scale) against the incubation time. These experiments allowed the quantitative analysis of peptide concentration in plasma.

[2] = tested on: HIV-1 NL4-3 DTV; settings: read-out: IC50 DTV, P4-CCR5 cells, peptide 2 h before infection, readout three days after infection
Procedure, shortened: (§1)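 P4-CCR5 cells (CD4, CCR5, CXCR4, HIV-1 promoter-driven β-galactosidase) pretreated 2 h with peptide, then infected with virus containing 1 ng p24 antigen and incubated overnight. Cells washed and cultured without peptide; three days post-infection infectivity read by chemiluminescent β-galactosidase assay, in quintuplicate.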

[3] = tested on: X4-tropic HIV-1 NL4-3; settings: read-out: IC50 NL4-3; P4-CCR5 cells, HIV-1 NL4-3, peptide 2 h before infection, readout three days after infection
Procedure, shortened: as §1

[4] = cynomolgus monkey, plasma
[5] = human, plasma
[6] = rat, plasma

SMILES | half-life [1] [h] | IC50 [2] [nM] | IC50 [3] [nM] | half-life [4] [h] | half-life [5] [h] | half-life [6] [h]
CC[C@H](C)[C@H](NC(=O)[C@H](C)NC(=O)[C@H](CCC(=O)O)NC(=O)[C@@H](N)CC(C)C)C(=O)N1CCC[C@H]1C(=O)N[C@H]1CSSC[C@@H](C(=O)N[C@@H](Cc2ccccc2)C(=O)N[C@@H](CC(C)C)C(=O)N[C@@H](Cc2ccccc2)C(=O)N[C@@H](CC(N)=O)C(=O)N[C@@H](CCCCN)C(=O)N2CCC[C@H]2C(=O)N[C@@H](Cc2ccccc2)C(=O)N[C@H](C(=O)N[C@@H](Cc2ccccc2)C(=O)O)C(C)C)NC(=O)[C@H]2CCCN2C(=O)[C@@H]2CCCN2C(=O)[C@H]([C@@H](C)CC)NC(=O)[C@H](CO)NC1=O [VIR-353, LEAIPCSIPpCFLFNKPFVF] (H-LEAIPCSIP[dP]CFLFNKPFVF-OH; disulfide 6-11) | 15.2 | 181 | 225 | 5 | 4 | 0.2
CC[C@H](C)[C@H](NC(=O)[C@@H]1CCCN1C(=O)[C@@H](NC(=O)[C@H](CCCCN)NC(=O)[C@H](CCC(=O)O)NC(=O)[C@@H](N)CC(C)C)[C@@H](C)CC)C(=O)NCC(=O)N[C@H](C(=O)N1CCC[C@H]1C(=O)N1CCC[C@@H]1C(=O)N[C@@H](CCC(=O)O)C(=O)N[C@H](C(=O)N1Cc2ccccc2C[C@@H]1C(=O)N[C@@H](Cc1ccccc1)C(=O)N[C@@H](CC(N)=O)C(=O)N[C@@H](CCCCN)C(=O)N1CCC[C@H]1C(=O)N[C@@H](Cc1ccccc1)C(=O)N[C@H](C(=O)N[C@@H](Cc1ccccc1)C(=O)O)C(C)C)C(C)C)[C@@H](C)CC [VIR-483, LEKIPIGIPpEV(D-Tic)FNKPFVF] (H-LEKIPIGIP[dP]EV[dTic]FNKPFVF-OH) | 6.2 | 866 | 765 | 2.2 | 2.6 | 0.2
CC[C@H](C)[C@H](NC(=O)[C@H](C)NC(=O)[C@H](CCC(=O)O)NC(=O)[C@@H](N)CC(C)C)C(=O)N1CCC[C@H]1C(=O)N[C@H]1CSSC[C@@H](C(=O)N[C@H](C(=O)N[C@@H](C)C(=O)N2Cc3ccccc3C[C@@H]2C(=O)N[C@@H](CC(N)=O)C(=O)N[C@@H](CCCCN)C(=O)N2CCC[C@H]2C(=O)N2Cc3ccccc3C[C@@H]2C(=O)N[C@@H](Cc2ccccc2)C(=O)N[C@H](C(=O)N[C@@H](Cc2ccccc2)C(=O)O)C(C)C)C(C)C)NC(=O)[C@@H]2CCCN2C(=O)[C@@H]2CCCN2C(=O)[C@H]([C@@H](C)CC)NC(=O)[C@H](CO)NC1=O [VIR-166, LEAIPCSIPPCVA(D-Tic)NKP(D-Tic)FVF] (H-LEAIPCSIPPCVA[dTic]NKP[dTic]FVF-OH; disulfide 6-11) | 11 | 506 | 356 | 12.1 | 7.6 | 0.4
CC[C@H](C)[C@H](NC(=O)[C@H](CCCCN)NC(=O)[C@H](CCC(=O)O)NC(=O)[C@@H](N)CC(C)C)C(=O)N1CCC[C@H]1C(=O)N[C@@H](CCSC)C(=O)N[C@@H](CO)C(=O)N[C@H](C(=O)N1CCC[C@H]1C(=O)N1CCC[C@@H]1C(=O)N[C@@H](CCC(=O)O)C(=O)N[C@H](C(=O)N1Cc2ccccc2C[C@@H]1C(=O)N[C@@H](Cc1ccccc1)C(=O)N[C@@H](CC(N)=O)C(=O)N[C@@H](CCCCN)C(=O)N1CCC[C@H]1C(=O)N[C@@H](Cc1ccccc1)C(=O)N[C@H](C(=O)N[C@@H](Cc1ccccc1)C(=O)O)C(C)C)C(C)C)[C@@H](C)CC [VIR-454, LEKIPMSIPpEV(D-Tic)FNKPFVF] (H-LEKIPMSIP[dP]EV[dTic]FNKPFVF-OH) | 15.6 | 1090 | 464 | 4.4 | 4.4 | 0.2
CC[C@H](C)[C@H](NC(=O)[C@H](C)NC(=O)[C@H](CCC(=O)O)NC(=O)[C@H](CC(C)C)NC)C(=O)N1CCC[C@H]1C(=O)N[C@@H](CCSC)C(=O)N[C@@H](CO)C(=O)N[C@H](C(=O)N1CCC[C@H]1C(=O)N1CCC[C@H]1C(=O)N[C@@H](CCC(=O)O)C(=O)N[C@@H](Cc1ccccc1)C(=O)N[C@@H](CC(C)C)C(=O)N[C@@H](Cc1ccccc1)C(=O)NCC(=O)N[C@@H](CCCCN)C(=O)N1CCC[C@H]1C(=O)N[C@@H](Cc1ccccc1)C(=O)N[C@H](C(=O)N[C@@H](Cc1ccccc1)C(=O)O)C(C)C)[C@@H](C)CC [VIR-512] (H-[NMeL]EAIPMSIPPEFLFGKPFVF-OH) | 48.1 | 615 | 138 | 33.6 | 315 | > 6
CC[C@H](C)[C@H](NC(=O)[C@H](C)NC(=O)[C@H](CCC(=O)O)NC(=O)[C@@H](N)CC(C)C)C(=O)N1CCC[C@H]1C(=O)N[C@@H](CCSC)C(=O)NCC(=O)N[C@H](C(=O)N1CCC[C@H]1C(=O)N1CCC[C@@H]1C(=O)N[C@@H](CCC(=O)O)C(=O)N[C@H](C(=O)N1Cc2ccccc2C[C@@H]1C(=O)N[C@@H](Cc1ccccc1)C(=O)N[C@@H](CC(N)=O)C(=O)N[C@@H](CCCCN)C(=O)N1CCC[C@H]1C(=O)N[C@@H](Cc1ccccc1)C(=O)N[C@H](C(=O)N[C@@H](Cc1ccccc1)C(=O)O)C(C)C)C(C)C)[C@@H](C)CC [VIR-448, LEAIPMGIPpEV(D-Tic)FNKPFVF] (H-LEAIPMGIP[dP]EV[dTic]FNKPFVF-OH) | 18 | 325 | 318 | 4.5 | 3.1 | 0.2
CC[C@H](C)[C@H](NC(=O)[C@H](C)NC(=O)[C@H](CCC(=O)O)NC(=O)[C@@H](N)CC(C)C)C(=O)N1CCC[C@H]1C(=O)N[C@@H](CCSC)C(=O)N[C@@H](CO)C(=O)N[C@H](C(=O)N1CCC[C@H]1C(=O)N1CCC[C@@H]1C(=O)N[C@@H](CCC(=O)O)C(=O)N[C@@H](Cc1ccccc1)C(=O)N[C@@H](CC(C)C)C(=O)N[C@@H](Cc1ccccc1)C(=O)N[C@@H](CC(N)=O)C(=O)N[C@@H](CCCCN)C(=O)N1CCC[C@H]1C(=O)N[C@@H](Cc1ccccc1)C(=O)N[C@H](C(=O)N[C@@H](Cc1ccccc1)C(=O)O)C(C)C)[C@@H](C)CC [VIR-199, LEAIPMSIPpEFLFNKPFVF] (H-LEAIPMSIP[dP]EFLFNKPFVF-OH) |  | 1650 | 2140 |  |  | 
CC[C@H](C)[C@H](NC(=O)[C@H](C)NC(=O)[C@H](CCC(=O)O)NC(=O)[C@@H](N)CC(C)C)C(=O)N1CCC[C@H]1C(=O)N[C@@H](CSSC[C@H](NC(=O)[C@@H]1CCCN1C(=O)[C@@H](NC(=O)[C@H](C)NC(=O)[C@H](CCC(=O)O)NC(=O)[C@@H](N)CC(C)C)[C@@H](C)CC)C(=O)N[C@@H](CO)C(=O)N[C@H](C(=O)N1CCC[C@H]1C(=O)N1CCC[C@H]1C(=O)N[C@@H](CCC(=O)O)C(=O)N[C@@H](Cc1ccccc1)C(=O)N[C@@H](CC(C)C)C(=O)N[C@@H](Cc1ccccc1)C(=O)NCC(=O)N[C@@H](CCCCN)C(=O)N1CCC[C@H]1C(=O)N[C@@H](Cc1ccccc1)C(=O)N[C@H](C(=O)N[C@@H](Cc1ccccc1)C(=O)O)C(C)C)[C@@H](C)CC)C(=O)N[C@@H](CO)C(=O)N[C@H](C(=O)N1CCC[C@H]1C(=O)N1CCC[C@H]1C(=O)N[C@@H](CCC(=O)O)C(=O)N[C@@H](Cc1ccccc1)C(=O)N[C@@H](CC(C)C)C(=O)N[C@@H](Cc1ccccc1)C(=O)NCC(=O)N[C@@H](CCCCN)C(=O)N1CCC[C@H]1C(=O)N[C@@H](Cc1ccccc1)C(=O)N[C@H](C(=O)N[C@@H](Cc1ccccc1)C(=O)O)C(C)C)[C@@H](C)CC [VIR-576] (I: H-LEAIPCSIPPEFLFGKPFVF-OH / II: H-LEAIPCSIPPEFLFGKPFVF-OH; disulfide I:6-II:6) | 12.6 |  |  | 3.8 | 5.8 | 2.6
CC[C@H](C)[C@H](NC(=O)[C@H](C)NC(=O)[C@H](CCC(=O)O)NC(=O)[C@@H](N)CC(C)C)C(=O)N1CCC[C@H]1C(=O)N[C@@H](CCSC)C(=O)N[C@@H](CO)C(=O)N[C@H](C(=O)N1CCC[C@H]1C(=O)N1CCC[C@@H]1C(=O)N[C@@H](CCC(=O)O)C(=O)N[C@H](C(=O)N[C@@H](Cc1csc2ccccc12)C(=O)N[C@@H](Cc1ccccc1)C(=O)N[C@@H](CC(N)=O)C(=O)N[C@@H](CCCCN)C(=O)N1CCC[C@H]1C(=O)N[C@@H](Cc1ccccc1)C(=O)N[C@H](C(=O)N[C@@H](Cc1ccccc1)C(=O)O)C(C)C)C(C)C)[C@@H](C)CC [VIR-264, LEAIPMSIPpEV(3-benzothienylalanine)FNKPFVF] (H-LEAIPMSIP[dP]EV[Bta]FNKPFVF-OH) |  | 700 | 590 |  |  | 
CC[C@H](C)[C@H](NC(=O)[C@H](C)NC(=O)[C@H](CCC(=O)O)NC(=O)[C@@H](N)CC(C)C)C(=O)N1CCC[C@H]1C(=O)N[C@@H](CCSC)C(=O)N[C@@H](CO)C(=O)N[C@H](C(=O)N1CCC[C@H]1C(=O)N1CCC[C@@H]1C(=O)N[C@@H](CCC(=O)O)C(=O)N[C@H](C(=O)N[C@@H](Cc1c[nH]c2ccccc12)C(=O)N[C@@H](Cc1ccccc1)C(=O)N[C@@H](CC(N)=O)C(=O)N[C@@H](CCCCN)C(=O)N1CCC[C@H]1C(=O)N[C@@H](Cc1ccccc1)C(=O)N[C@H](C(=O)N[C@@H](Cc1ccccc1)C(=O)O)C(C)C)C(C)C)[C@@H](C)CC [VIR-266, LEAIPMSIPpEVWFNKPFVF] (H-LEAIPMSIP[dP]EVWFNKPFVF-OH) |  | 830 | 590 |  |  | 
CC[C@H](C)[C@H](NC(=O)[C@H](C)NC(=O)[C@H](CCC(=O)O)NC(=O)[C@@H](N)CC(C)C)C(=O)N1CCC[C@H]1C(=O)N[C@H]1CSSC[C@@H](C(=O)N[C@H](C(=O)N[C@@H](CC(C)C)C(=O)N[C@@H](Cc2ccccc2)C(=O)N[C@@H](CC(N)=O)C(=O)N[C@@H](CCCCN)C(=O)N2CCC[C@H]2C(=O)N[C@@H](Cc2ccccc2)C(=O)N[C@H](C(=O)N[C@@H](Cc2ccccc2)C(=O)O)C(C)C)C(C)C)NC(=O)[C@@H]2CCCN2C(=O)[C@@H]2CCCN2C(=O)[C@H]([C@@H](C)CC)NC(=O)[C@H](CO)NC1=O [VIR-163] (H-LEAIPCSIPPCVLFNKPFVF-OH; disulfide 6-11) |  | 290 | 760 |  |  | 
